Results taken from PMC11075139 (RSC Advances, 2024).

Assays:
[1] = target: electric eel acetylcholinesterase (eeAChE) (Electrophorus electricus, UniProt O42275); assay: Acetylcholinesterase inhibition assay; type: biochemical; settings: for IC50: IC50 (μM) ± SEM eeAChE, mean ± SEM, n = 3; for SI (Selectivity index): Selectivity index = IC50 of BChE/IC50 of AChE
human CA-II = human CA-II (Homo sapiens, UniProt P00918); assay: In vitro human CA-II inhibition assay; type: biochemical
[2] = for Prediction of CNS penetration: from PAMPA-BBB Pe; for BBB penetration in PAMPA assay: stated in words
in vitro = settings: PAMPA
CA-II = settings: read-out: Ki CA-II inhibition; cited from earlier work
Aβ1–42 peptide = Aβ1–42 peptide (Homo sapiens, UniProt P05067); assay: Self-mediated Aβ1–42 aggregation assay; type: biochemical; settings: for inhibition of Aβ fibrils: ThT fluorescence, after 24 hours of equimolar treatment with Aβ1–42
Sequence of Aβ1–42 peptide (P05067 672-713): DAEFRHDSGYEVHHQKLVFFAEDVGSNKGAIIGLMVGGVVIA

eqBChE = eqBChE (Equus caballus, UniProt P81908); assay: Butyrylcholinesterase inhibition assay; type: biochemical
Sequence of eqBChE (P81908 whole entry): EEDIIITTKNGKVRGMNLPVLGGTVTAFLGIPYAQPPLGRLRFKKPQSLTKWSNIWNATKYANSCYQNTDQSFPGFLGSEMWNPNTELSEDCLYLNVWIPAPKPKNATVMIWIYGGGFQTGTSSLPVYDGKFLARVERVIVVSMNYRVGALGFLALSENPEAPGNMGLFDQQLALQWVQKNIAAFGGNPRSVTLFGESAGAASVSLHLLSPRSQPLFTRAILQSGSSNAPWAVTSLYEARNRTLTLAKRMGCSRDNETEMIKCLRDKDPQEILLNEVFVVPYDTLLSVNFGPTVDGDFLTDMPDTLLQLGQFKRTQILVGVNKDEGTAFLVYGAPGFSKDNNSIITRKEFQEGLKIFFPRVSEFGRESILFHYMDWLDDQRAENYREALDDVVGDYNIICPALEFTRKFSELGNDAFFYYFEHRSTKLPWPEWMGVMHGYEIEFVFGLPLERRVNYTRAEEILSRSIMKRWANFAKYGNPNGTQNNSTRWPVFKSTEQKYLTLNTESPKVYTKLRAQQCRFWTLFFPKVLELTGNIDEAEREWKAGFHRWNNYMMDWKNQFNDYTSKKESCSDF

SH-SY5Y cells = assay: Cell viability/neurotoxicity assay; type: cell-based, human
AChE = settings: read-out: Ki AChE; non-competitive inhibitor; cited from earlier work

Sequence of electric eel acetylcholinesterase (eeAChE) (O42275 24-633): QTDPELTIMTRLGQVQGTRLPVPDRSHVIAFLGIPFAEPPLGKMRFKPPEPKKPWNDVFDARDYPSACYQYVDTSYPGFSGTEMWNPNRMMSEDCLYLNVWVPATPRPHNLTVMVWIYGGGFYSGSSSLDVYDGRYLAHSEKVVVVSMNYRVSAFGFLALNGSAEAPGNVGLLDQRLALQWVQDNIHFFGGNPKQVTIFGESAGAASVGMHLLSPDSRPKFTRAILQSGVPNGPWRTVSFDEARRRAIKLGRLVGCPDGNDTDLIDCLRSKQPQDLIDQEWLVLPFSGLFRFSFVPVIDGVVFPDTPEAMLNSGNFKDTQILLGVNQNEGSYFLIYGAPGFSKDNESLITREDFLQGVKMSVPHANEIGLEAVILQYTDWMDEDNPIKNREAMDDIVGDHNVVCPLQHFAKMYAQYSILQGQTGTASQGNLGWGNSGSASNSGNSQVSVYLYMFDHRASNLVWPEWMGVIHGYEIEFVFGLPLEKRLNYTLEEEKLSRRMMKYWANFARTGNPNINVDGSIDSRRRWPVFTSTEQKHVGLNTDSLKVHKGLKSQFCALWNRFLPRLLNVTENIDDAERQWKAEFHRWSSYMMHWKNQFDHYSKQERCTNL

Compound	IC50 [1] [µM]	IC50 (human CA-II) [µM]	SI (Selectivity index) [1]	IC50 (Aβ1–42 peptide) [µM]	IC50 (eqBChE) [µM]	further results
CC(=O)C1CC[C@H]2[C@@H]3CC=C4CC(N)CC[C@]4(C)[C@H]3CC[C@]12C (stereo partly drawn) [Compound 12, 1-((8S,9S,10R,13S,14S)-3-amino-10,13-dimethyl-2,3,4,7,8,9,10,11,12,13,14,15,16,17-tetradecahydro-1H-cyclopenta[a]phenanthren-17-yl)ethan-1-one]	67.7 ± 1.09	73.2 ± 1.14	–	–	–	Prediction of CNS penetration [2]: High (‘CNS+’ (prediction of high BBB permeation); Pe (10^−6 cm s^−1) > 4.39); BBB penetration in PAMPA assay [2]: high BBB penetration; Papp (in vitro): 19.6 ×10⁻⁶ cm/s
hyocholic acid [Compound 3]	–	–	–	–	–	Ki (CA-II): 38.9 µM
C[C@]12CC[C@@H]3c4ccc(O)cc4CC[C@H]3[C@@H]1CC[C@H]2O [Compound 4, α-estradiol]	–	–	–	–	–	Ki (CA-II): 40.4 µM
C[C@]12CCC(NC(=S)Nc3ccc(S(N)(=O)=O)cc3)CC1=CC[C@@H]1[C@@H]2CC[C@]2(C)C(C(=O)CN3c4ccccc4Sc4ccccc43)CC[C@@H]12 (stereo partly drawn) [Compound 27, 4-(3-((8S,9S,10R,13S,14S)-17-(2-(10H-Phenothiazin-10-yl)acetyl)-10,13-dimethyl-2,3,4,7,8,9,10,11,12,13,14,15,16,17-tetradecahydro-1H-cyclopenta[a]phenanthren-3-yl)thioureido)benzenesulfonamide]	0.094 ± 0.002	5.18 ± 0.12	166.7	5.78 ± 0.07	15.01 ± 0.03	inhibition of Aβ fibrils (Aβ1–42 peptide): 85%; Prediction of CNS penetration [2]: High (‘CNS+’ (prediction of high BBB permeation); Pe (10^−6 cm s^−1) > 4.39); BBB penetration in PAMPA assay [2]: BBB penetrants; protection of SH-SY5Y cells from the toxicity of the Aβ peptide (SH-SY5Y cells; SH-SY5Y cells incubated with Aβ1–42): effectively protected; cytotoxicity (SH-SY5Y cells; SH-SY5Y cells, 5 μM): completely non-cytotoxic; Papp (in vitro): 18.1 ×10⁻⁶ cm/s
CC(=O)C1CC[C@H]2[C@@H]3CC=C4CC(NC(=S)Nc5ccc(S(N)(=O)=O)cc5)CC[C@]4(C)[C@H]3CC[C@]12C (stereo partly drawn) [Compound 15, 4-(3-((8S,9S,10R,13S,14S)-17-Acetyl-10,13-dimethyl-2,3,4,7,8,9,10,11,12,13,14,15,16,17-tetradecahydro-1H-cyclopenta[a]phenanthren-3yl)thioureido)benzenesulfonamide]	13 ± 0.18	48.9 ± 1.37	4.8	9.25 ± 0.17	63 ± 1.23	inhibition of Aβ fibrils (Aβ1–42 peptide): approximately 60%; viability at 5 µM (SH-SY5Y cells; Homo sapiens, SH-SY5Y, read-out: cell viability): ~75%
CCn1cc(C(=O)O)c(=O)c2cc(F)c(N3CCNC(C)C3)c(F)c21 (stereo not shown) [Lomefloxacin, reference compound]	–	–	–	–	–	Prediction of CNS penetration [2]: No (‘CNS−’ (prediction of low BBB permeation); Pe (10^−6 cm s^−1) < 1.78)
C[C@]12CCC(NC(=S)Nc3ccc(S(N)(=O)=O)cc3)CC1=CC[C@@H]1[C@@H]2CC[C@]2(C)C(C(=O)CNCCc3ccccc3)CC[C@@H]12 (stereo partly drawn) [Compound 24, 4-(3-((8S,9S,10R,13S,14S)-10,13-Dimethyl-17-(phenethylglycyl)-2,3,4,7,8,9,10,11,12,13,14,15,16,17-tetradeca-hydro-1H-cyclopenta[a]phenanthren-3-yl)thioureido)benzenesulfonamide]	1.61 ± 0.1	5.44 ± 0.14	8.0	29.6 ± 1.21	12.8 ± 0.45	–
Cc1nnc2n1-c1ccc(Cl)cc1C(c1ccccc1)=NC2 [Alprazolam, reference compound]	–	–	–	–	–	Prediction of CNS penetration [2]: High (‘CNS+’ (prediction of high BBB permeation); Pe (10^−6 cm s^−1) > 4.39)
C[C@]12CC[C@@H]3c4ccc(O)cc4CC[C@H]3[C@@H]1CCC2=O [oestrone]	–	–	–	–	–	Ki (CA-II): 50.8 µM
COc1cc(/C=C/C(=O)CC(=O)/C=C/c2ccc(O)c(OC)c2)ccc1O [Curcumin, reference compound]	–	–	–	–	–	inhibition of Aβ fibrils (Aβ1–42 peptide): approximately 60%
C[C@H](CCC(=O)O)[C@H]1CC[C@H]2[C@@H]3CC[C@@H]4C[C@H](O)CC[C@]4(C)[C@H]3C[C@H](O)[C@]12C [Compound 5, deoxycholic acid]	–	–	–	–	–	Ki (CA-II): 51 µM
isosarcodine	–	–	–	–	–	Ki (AChE): 21.8 µM
C[C@]12CCC(NC(=S)Nc3ccc(S(N)(=O)=O)cc3)CC1=CC[C@@H]1[C@@H]2CC[C@]2(C)C(C(=O)CNCc3ccccc3)CC[C@@H]12 (stereo partly drawn) [Compound 25, 4-(3-((8S,9S,10R,13S,14S)-17-(Benzylglycyl)-10,13-di-methyl-2,3,4,7,8,9,10,11,12,13,14,15,16,17-tetradeca-hydro-1H-cyclopenta[a]phenanthren-3-yl)thioureido)benzenesulfonamide]	0.98 ± 0.1	1.02 ± 0.01	11.5	12.8 ± 0.15	11.27 ± 0.11	–
C[C@]12CCC(NC(=S)Nc3ccc(S(N)(=O)=O)cc3)CC1=CC[C@@H]1[C@@H]2CC[C@]2(C)C(C(=O)CNc3c4c(cc5ccccc35)CCCC4)CC[C@@H]12 (stereo partly drawn) [Compound 28, 4-(3-((8S,9S,10R,13S,14S)-10,13-Dimethyl-17-((1,2,3,4-tetrahydroanthracen-9-yl)glycyl)-2,3,4,7,8,9,10,11,12,13,14,15,16,17-tetradecahydro-1H-cyclopenta[a]phenanthren-3-yl)thioureido)benzenesulfonamide]	0.32 ± 0.01	31.8 ± 1.08	42.2	26.37 ± 0.25	13.5 ± 0.09	–
